Patent US7030107B2, “Fused bicyclic pyridine derivatives as tachykinin receptor antagonists” (Kyorin Pharmaceutical.Co., Ltd., priority 2001, dated 2006)

How the values were obtained:
NK1 receptor = target: T1, NK1 receptor (Cavia porcellus, UniProt P30547); experiment: Test for NK1 receptor antagonist: substance P concentration-response in isolated guinea pig ileum, Schild analysis; format: cell-based; conditions: antagonism of substance P, 10 min pretreatment, Schild method
T1 construct: from tissue; host or cells: isolated guinea pig ileum
Procedure: (1) Test for NK1 Receptor Antagonist
The method used was according to the method proposed by S. Dion et al. (Dion et al., Life Sciences 41 (1987): 2269), to which minor modifications were made.
Guinea pigs were stunned by a blow on the head and were exsanguinated from the carotid artery and ileum was isolated. The ileum was mounted in an organ bath containing Tyrode's solution which was maintained at 32° C. and gased with 95% O2 and 5% CO2. The ileum was subjected to a resting tension of 1-gram and allowed to equilibrate for 20 minutes before the experiment was started. As a control, a concentration-response curve for substance P obtained in the absence of test compounds was used. The NK1 receptor antagonist activity of each test compound was determined by a concentration-response curve obtained by pretreating at least three concentrations of the test compound for 10 minutes and subsequently applying substance P in a cumulative manner. The Kb values were determined according to the method proposed by Schild and the results are shown in Table 1 (Schild Brit. J. Pharmacol. 14 (1959): 49).
The composition of the Tyrode's solution was as follows: NaCl=136.9, KCl=2.7, CaCl2.2H2O=2.5, MgCl2.6H2O=1.0, NaH2PO4.2H2O=0.4, NaHCO3=11.9, glucose=11.1 (mmol/L)

Guinea pigs = experiment: Cystometry test on guinea pigs with cut spinal cord (effective bladder capacity); format: in vivo; conditions: guinea pig
Text: (2) Cystometry Test on Guinea Pigs
The method used was according to the method proposed by J S. Peterson et al. (Peterson J S. et al., J. Pharmacol. Methods 21 (1989): 231), to which minor modifications were made.
Guinea pigs were anesthetized with halothane and the tenth thoracic spinal cord was cut in each animal. Subsequently, both ureters were ligated and were cut on the kidney-side. Polyethylene catheters were inserted into the bladder to provide an injection pathway for physiological saline and a pathway for the measurement of intravesical pressure. Each animal was restricted in a Ballman cage and was left for more than 2 hours. Subsequently, room-temperature saline was injected through the bladder catheter into the bladder at a rate of 6 mL/hr to conduct a cystometry test. After the effective bladder capacity was stabilized, a test compound was intravenously administered from the jugular vein. The effective bladder capacity is defined as the volume of saline injected from one urination to the next. The effect of each test compound was determined as the increase in the average bladder volume, which was determined by taking difference between the average bladder volume measured 30 minutes prior to the administration of the test compound and the average bladder volume measured every 30 minutes after the administration of the test compound.

T1 sequence (P30547 whole entry): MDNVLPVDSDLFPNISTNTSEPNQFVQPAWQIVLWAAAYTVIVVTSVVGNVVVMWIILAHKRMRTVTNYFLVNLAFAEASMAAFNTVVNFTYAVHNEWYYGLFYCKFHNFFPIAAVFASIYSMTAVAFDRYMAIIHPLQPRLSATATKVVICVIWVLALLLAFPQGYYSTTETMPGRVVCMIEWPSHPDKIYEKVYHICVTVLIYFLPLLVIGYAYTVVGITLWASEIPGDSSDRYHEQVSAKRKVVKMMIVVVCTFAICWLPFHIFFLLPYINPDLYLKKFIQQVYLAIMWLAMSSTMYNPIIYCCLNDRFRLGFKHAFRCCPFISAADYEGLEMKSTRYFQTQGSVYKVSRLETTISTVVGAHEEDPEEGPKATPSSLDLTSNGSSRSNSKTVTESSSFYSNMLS

| Kb (NK1 receptor) | Structure (SMILES) | Increase in bladder capacity (Guinea pigs; 0.3 mg/kg i.v.) | Increase in bladder capacity (Guinea pigs; 1 mg/kg i.v.) | Increase in bladder capacity (Guinea pigs; 3 mg/kg i.v.) |
| --- | --- | --- | --- | --- |
| 0.275 nM | Cc1ccccc1-c1cc(N2CCC(N(C)C)CC2)nc2c1C(=O)N(Cc1cc(C(F)(F)F)cc(C(F)(F)F)c1)CCCO2 [Example 8, 5-[3,5-bis(trifluoromethyl)benzyl]-9-[4-(dimethylamino)piperidine-1-yl]-7-(2-methylphenyl)-6-oxo-2,3,4,5-tetrahydro-6H-pyrido[2,3-b][1,5]oxazocine] |  |  |  |
| 0.0848 nM | Cc1ccccc1-c1cc(N2CCC(N3CCOCC3)CC2)nc2c1C(=O)N(Cc1cc(C(F)(F)F)cc(C(F)(F)F)c1)CCCO2 [Example 9, 5-[3,5-bis(trifluoromethyl)benzyl]-7-(2-methylphenyl)-9-[4-(morpholine-4-yl)piperidine-1-yl]-6-oxo-2,3,4,5-tetrahydro-6H-pyrido[2,3-b][1,5]oxazocine] |  |  |  |
| 0.286 nM | Cc1ccccc1-c1cc(N2CCC(N3CCCC3=O)CC2)nc2c1C(=O)N(Cc1cc(C(F)(F)F)cc(C(F)(F)F)c1)CCCO2 [Example 10, 5-[3,5-bis(trifluoromethyl)benzyl]-7-(2-methylphenyl)-6-oxo-9-[4-(2-oxopyrrolidine-1-yl)piperidine-1-yl]-2,3,4,5-tetrahydro-6H-pyrido[2,3-b][1,5]oxazocine] |  |  |  |
| 0.17 nM | CC(=O)NC1CCN(c2cc(-c3ccccc3C)c3c(n2)OCCCN(Cc2cc(C(F)(F)F)cc(C(F)(F)F)c2)C3=O)CC1 [Example 13, 9-[4-(acetylamino)piperidine-1-yl]-5-[3,5-bis(trifluoromethyl)benzyl]-7-(2-methylphenyl)-6-oxo-2,3,4,5-tetrahydro-6H-pyrido[2,3-b][1,5]oxazocine] |  |  |  |

Continued, compound first:

| Structure (SMILES) | Kb (NK1 receptor) | Increase in bladder capacity (Guinea pigs; 0.3 mg/kg i.v.) | Increase in bladder capacity (Guinea pigs; 1 mg/kg i.v.) | Increase in bladder capacity (Guinea pigs; 3 mg/kg i.v.) |
| --- | --- | --- | --- | --- |
| O=C1c2c(-c3ccccc3)cc(N3CCC(N4CCCC4)CC3)nc2OCCCN1Cc1cc(C(F)(F)F)cc(C(F)(F)F)c1 [Example 1, 5-[3,5-bis(trifluoromethyl)benzyl]-6-oxo-7-phenyl-9-[4-(pyrrolidine-1-yl)piperidine-1-yl]-2,3,4,5-tetrahydro-6H-pyrido[2,3-b][1,5]oxazocine] | 0.224 nM |  |  |  |
| O=C1c2c(-c3ccc(F)cc3)cc(N3CCC(N4CCCC4)CC3)nc2OCCCN1Cc1cc(C(F)(F)F)cc(C(F)(F)F)c1 [Example 4, 5-[3,5-bis(trifluoromethyl)benzyl]-7-(4-fluorophenyl)-6-oxo-9-[4-(pyrrolidine-1-yl)piperidine-1-yl]-2,3,4,5-tetrahydro-6H-pyrido[2,3-b][1,5]oxazocine] | 0.148 nM |  |  |  |
| Cc1ccccc1-c1cc(N2CCC(N3CCCC3)CC2)nc2c1C(=O)N(Cc1cc(C(F)(F)F)cc(C(F)(F)F)c1)CCCO2 [Example 7, 5-[3,5-bis(trifluoromethyl)benzyl]-7-(2-methylphenyl)-6-oxo-9-[4-(pyrrolidine-1-yl)piperidine-1-yl]-2,3,4,5-tetrahydro-6H-pyrido[2,3-b][1,5]oxazocine] | 0.21 nM | 24.2% | 46.0% |  |
| Cc1ccc(-c2c3n(c(=O)c4ncccc24)CC[C@@H](C)CN(Cc2cc(C(F)(F)F)cc(C(F)(F)F)c2)C3=O)cc1 [TAK-637] |  | 12.0% | 23.8% | 20.5% |
